Reference: patent publication US20140051679A1, “KINASE INHIBITORS AND METHOD OF TREATING CANCER WITH SAME” (UNIVERISTY HEALTH NETWORKS, priority 2011, published 2014)

Tests used:
[1] = system: HT29 colon cancer cells; assay: Cell growth inhibition, Sulforhodamine B assay, HT29; format: cell-based; details: Homo sapiens, HT-29, 120 h, 5 days culture, SRB assay, read-out: Cell Line GI50 Range HT29
[2] = system: MDA-MB-231 breast cancer cells; assay: Cell growth inhibition, Sulforhodamine B assay, MDA-MB-231; format: cell-based; details: Homo sapiens, 120 h, 5 days culture, SRB assay, read-out: Cell Line GI50 Range MDA-MB-231
[3] = system: Colon tumor initiating cells (TICs), 12 colon; assay: Colon tumor-initiating cell growth inhibition (Alamar Blue); format: cell-based; details: 216 h, 9 days, read-out: GI50 range 12 colon
[4] = target: T1, Aurora B (Homo sapiens, UniProt Q96GD4); assay: Aurora B inhibition assay (Z-Lyte); format: biochemical; details: 28 nM Aurora B, 128 μM ATP; read-out: IC50 Ranges Aurora B
T1 construct: purchased Invitrogen PV3970
Procedure: Aurora B inhibition was determined using the Z-Lyte assay kit from Invitrogen. The assay was performed using the recommended manufacturer's instructions with 128 μM ATP and 28 nM Aurora B (Invitrogen cat #PV3970). The % inhibition values were determined according to the manufacturer's directions and IC50 values were obtained using a non-linear 4 point logistic curve fit (XLfit4, IDBS)

[5] = system: Ovarian TICs, 2393A ovarian; assay: Ovarian tumor-initiating cell growth inhibition (Alamar Blue); format: cell-based; details: 144 h, 6 days, read-out: GI50 range 2393A ovarian
[6] = system: OVCAR-3 ovarian cancer cells; assay: Cell growth inhibition, Sulforhodamine B assay, OVCAR-3; format: cell-based; details: Homo sapiens, 120 h, 5 days culture, SRB assay, read-out: Cell Line GI50 Range OVCAR-3
[7] = system: MDA-MB-468 breast cancer cells; assay: Cell growth inhibition, Sulforhodamine B assay, MDA-MB-468; format: cell-based; details: Homo sapiens, 120 h, 5 days culture, SRB assay, read-out: Cell Line GI50 Range MDA-MB-468
[8] = system: HCT116 colon cancer cells; assay: Cell growth inhibition, Sulforhodamine B assay, HCT116; format: cell-based; details: Homo sapiens, HCT-116, 120 h, 5 days culture, SRB assay, read-out: Cell Line GI50 Range HCT116
[9] = target: T2, human PLK4 (Homo sapiens, UniProt O00444); assay: PLK4 inhibition assay (indirect ELISA); format: biochemical; details: GST-PLK4 4 nM, 15 μM ATP; read-out: IC50 Ranges PLK4
T2 construct: amino terminal GST fusion of residues 1-391 of human PLK4; made in house; host or cells: E. coli
T2 sequence (O00444 1-391): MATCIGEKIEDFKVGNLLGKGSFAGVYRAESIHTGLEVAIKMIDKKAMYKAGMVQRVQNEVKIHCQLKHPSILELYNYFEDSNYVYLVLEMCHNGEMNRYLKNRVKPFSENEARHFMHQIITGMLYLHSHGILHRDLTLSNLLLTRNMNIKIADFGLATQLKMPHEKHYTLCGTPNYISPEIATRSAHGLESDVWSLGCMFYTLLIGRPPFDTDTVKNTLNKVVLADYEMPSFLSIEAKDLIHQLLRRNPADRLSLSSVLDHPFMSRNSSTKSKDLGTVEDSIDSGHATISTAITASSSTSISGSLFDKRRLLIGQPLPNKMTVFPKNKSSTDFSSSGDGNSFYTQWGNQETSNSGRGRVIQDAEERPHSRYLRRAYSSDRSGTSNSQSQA
Summary of the method: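 Dephosphorylated GST-tagged human PLK4 (residues 1-391, E. coli), 4 nM, preincubated 15 min with compound, then reacted 30 min with 15 μM ATP on MBP-coated plates (50 mM HEPES pH 7.5, 10 mM MgCl2, 0.01% Brij 35). Phospho-MBP detected by antibody ELISA at 450 nm. Tested at 10 μM or 10-point titrations; IC50 from 4-parameter logistic fit.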

[10] = target: T3, human TTK (Homo sapiens, UniProt P33981); assay: TTK inhibition assay (indirect ELISA); format: biochemical; details: GST-TTK 0.68 nM, 16 μM ATP; read-out: IC50 Ranges TTK
T3 construct: amino terminal GST fusion of full length human TTK; purchased Invitrogen
T3 sequence (P33981 1-857): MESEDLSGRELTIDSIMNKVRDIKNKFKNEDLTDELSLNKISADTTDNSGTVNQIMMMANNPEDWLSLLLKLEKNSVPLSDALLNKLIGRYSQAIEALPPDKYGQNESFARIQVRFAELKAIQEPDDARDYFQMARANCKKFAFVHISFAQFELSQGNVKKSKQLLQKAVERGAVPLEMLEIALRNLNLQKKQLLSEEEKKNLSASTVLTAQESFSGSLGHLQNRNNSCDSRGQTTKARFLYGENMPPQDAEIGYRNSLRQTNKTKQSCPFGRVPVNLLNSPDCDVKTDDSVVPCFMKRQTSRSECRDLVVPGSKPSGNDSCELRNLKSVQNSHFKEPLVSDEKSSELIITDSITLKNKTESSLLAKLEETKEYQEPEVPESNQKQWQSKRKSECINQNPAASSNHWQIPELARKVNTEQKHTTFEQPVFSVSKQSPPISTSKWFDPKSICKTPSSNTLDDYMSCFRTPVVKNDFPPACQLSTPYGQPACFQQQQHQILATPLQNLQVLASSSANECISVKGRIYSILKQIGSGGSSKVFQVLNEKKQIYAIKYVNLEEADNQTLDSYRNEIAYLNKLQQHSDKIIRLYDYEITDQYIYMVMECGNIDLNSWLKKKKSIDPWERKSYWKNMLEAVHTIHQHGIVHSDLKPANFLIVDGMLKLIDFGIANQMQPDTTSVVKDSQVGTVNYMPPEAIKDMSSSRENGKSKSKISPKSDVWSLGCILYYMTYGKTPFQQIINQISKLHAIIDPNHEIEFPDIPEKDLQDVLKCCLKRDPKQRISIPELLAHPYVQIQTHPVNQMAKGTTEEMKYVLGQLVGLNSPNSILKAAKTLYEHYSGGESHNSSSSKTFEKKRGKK

[11] = system: PA-1 ovarian cancer cells; assay: Cell growth inhibition, Sulforhodamine B assay, PA-1; format: cell-based; details: 120 h, 5 days culture, SRB assay, read-out: Cell Line GI50 Range PA-1

T1 sequence (Q96GD4 whole entry): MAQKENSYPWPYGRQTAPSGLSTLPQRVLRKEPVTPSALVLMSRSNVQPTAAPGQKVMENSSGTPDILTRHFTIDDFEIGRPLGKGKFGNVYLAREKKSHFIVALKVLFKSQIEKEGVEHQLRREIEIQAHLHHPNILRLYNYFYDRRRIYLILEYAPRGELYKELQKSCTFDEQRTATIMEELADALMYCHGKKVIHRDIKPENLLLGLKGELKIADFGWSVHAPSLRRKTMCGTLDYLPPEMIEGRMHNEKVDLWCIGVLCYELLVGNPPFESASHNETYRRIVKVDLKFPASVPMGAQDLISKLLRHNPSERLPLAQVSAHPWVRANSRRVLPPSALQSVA

SMILES | GI50 [1] | GI50 [2] | GI50 [3] | IC50 [4] | GI50 [5] | GI50 [6] | GI50 [7] | GI50 [8] | IC50 [9] | IC50 [10] | GI50 [11]
O=CN1CCC(Oc2ccc(-c3n[nH]c4ccc(C(=O)NC(c5ccsc5)C5CC5)cc34)cc2)CC1 (stereo not shown) [Example A186, N-(cyclopropyl(thiophen-3-methyl-3-yl)methyl)-3-(4-((1-formylpiperidin-4-yl)oxy)phen)-1H-indazole-5-carboxamide] |  |  | ≤ 5 µM | ≤ 5 µM | ≤ 5 µM |  | ≤ 5 µM | ≤ 5 µM | ≤ 5 µM | ≤ 5 µM | ≤ 5 µM
O=C(Nc1ccc2[nH]nc(-c3ccc(N4CCOCC4)cc3)c2c1)C(c1ccsc1)N1CCCC1 (stereo not shown) [Example A4, N-(3-(4-morpholinophenyl)-1H-indazol-5-yl)-2-(pyrrolidin-1-yl)-2-(thiophen-3-yl)acetamide] | ≤ 5 µM | ≤ 5 µM | ≤ 5 µM | ≤ 5 µM | ≤ 5 µM | 5 to 20 µM | ≤ 5 µM | ≤ 5 µM | ≤ 5 µM | ≤ 5 µM | 
CN1CCC(Nc2ccc(-c3n[nH]c4ccc(NC(=O)C(c5ccsc5)N5CCCC5)cc34)cc2)CC1 (stereo not shown) [Example A25] | ≤ 5 µM | ≤ 5 µM | ≤ 5 µM | ≤ 5 µM | ≤ 5 µM | ≤ 5 µM | ≤ 5 µM | ≤ 5 µM | ≤ 5 µM | ≤ 5 µM | 
C[C@H]1CCCN1[C@H](C(=O)Nc1ccc2[nH]nc(-c3ccc(OC4CCN(C)CC4)cc3)c2c1)c1ccsc1 [Example A41, (S)—N-(3-(4-((1-methylpiperidin-4-yl)oxy)phenyl)-1H-indazol-5-yl)-2-((S)-2-methylpyrrolidin-1-yl)-2-(thiophen-3-yl)acetamide] | ≤ 5 µM |  | ≤ 5 µM | ≤ 5 µM | ≤ 5 µM | ≤ 5 µM | ≤ 5 µM | ≤ 5 µM | ≤ 5 µM | ≤ 5 µM | 
O=C(Nc1ccc2[nH]nc(-c3ccc(OC4CCOCC4)cc3)c2c1)C(c1ccsc1)N1CCCC1 (stereo not shown) [Example A29, 2-(pyrrolidin-1-yl)-N-(3-(4-((tetrahydro-2H-pyran-4-yl)oxy)phenyl)-1H-indazol-5-yl)-2-(thiophen-3-yl)acetamide] | ≤ 5 µM | 5 to 20 µM | ≤ 5 µM | ≤ 5 µM | ≤ 5 µM | 5 to 20 µM | ≤ 5 µM | ≤ 5 µM | ≤ 5 µM | ≤ 5 µM | 
O=CN1CCC(Oc2ccc(-c3n[nH]c4ccc(C(=O)NC(c5ccccc5F)C5CC5)cc34)cc2)CC1 (stereo not shown) [Example A182, N-(cyclopropyl(2-fluorophenyl)methyl)-3-(4-((1-formylpiperidin-4-yl)oxy)phenyl)-1H-indazole-5-carboxamide] |  |  | ≤ 5 µM | ≤ 5 µM | ≤ 5 µM |  | ≤ 5 µM | ≤ 5 µM | ≤ 5 µM | ≤ 5 µM | ≤ 5 µM
O=C(NC(c1ccccc1)C1CC1)c1ccc2[nH]nc(-c3ccc(OC4CN(C5COC5)C4)cc3)c2c1 (stereo not shown) [Example A190, N-(cyclopropyl(phenyl)methyl)-3-(4-((1-(oxetan-3-yl)azetidin-3-yl)oxy)phenyl)-1H-indazole-5-carboxamide] |  |  | ≤ 5 µM | ≤ 5 µM | ≤ 5 µM |  | ≤ 5 µM | ≤ 5 µM | ≤ 5 µM | ≤ 5 µM | ≤ 5 µM
CO[C@@H](C(=O)Nc1ccc2[nH]nc(-c3ccc(OC4CCN(C)CC4)cc3)c2c1)c1ccccc1 [Example A27, (R)-2-methoxy-N-(3-(4-((1-methylpiperidin-4-yl)oxy)phenyl)-1H-indazol-5-yl)-2-phenylacetamide] | ≤ 5 µM | 5 to 20 µM | ≤ 5 µM | ≤ 5 µM | ≤ 5 µM | 5 to 20 µM | ≤ 5 µM | ≤ 5 µM | ≤ 5 µM | ≤ 5 µM | 
CN1CCC(Oc2ccc(-c3n[nH]c4ccc(C(=O)NC(c5ccsc5)C5CC5)cc34)cc2)CC1 (stereo not shown) [Example A33, N-(cyclopropyl(thiophen-3-yl)methyl)-3-(4-((1-methylpiperidin-4-yl)oxy)phenyl)-1H-indazole-5-carboxamide] | ≤ 5 µM | ≤ 5 µM | ≤ 5 µM | ≤ 5 µM | ≤ 5 µM | ≤ 5 µM | ≤ 5 µM | ≤ 5 µM | ≤ 5 µM | ≤ 5 µM | 

The remaining lines, values ahead:

GI50 [1] | GI50 [2] | GI50 [3] | IC50 [4] | GI50 [5] | GI50 [6] | GI50 [7] | GI50 [8] | IC50 [9] | IC50 [10] | GI50 [11] | SMILES
≤ 5 µM | ≤ 5 µM | ≤ 5 µM | ≤ 5 µM | ≤ 5 µM | ≤ 5 µM | ≤ 5 µM | ≤ 5 µM | ≤ 5 µM | ≤ 5 µM |  | O=C(NC(c1ccsc1)C1CC1)c1ccc2[nH]nc(-c3ccc(N4CCOCC4)cc3)c2c1 (stereo not shown) [Example A35, N-(cyclopropyl(thiophen-3-yl)methyl)-3-(4-morpholinophenyl)-1H-indazole-5-carboxamide]
 |  | ≤ 5 µM | ≤ 5 µM | ≤ 5 µM |  | ≤ 5 µM | ≤ 5 µM | ≤ 5 µM | ≤ 5 µM | ≤ 5 µM | CC(C)(O)C1CCN(c2ccc(-c3n[nH]c4ccc(C(=O)NC(c5ccccn5)C5CC5)cc34)cc2)CC1 (stereo not shown) [Example A180, N-(cyclopropyl(pyridin-2-yl)methyl)-3-(4-(4-(2-hydroxypropan-2-yl)piperidin-1-yl)phenyl)-1H-indazole-5-carboxamide]
 |  | ≤ 5 µM | ≤ 5 µM | ≤ 5 µM |  | ≤ 5 µM | ≤ 5 µM | ≤ 5 µM | ≤ 5 µM |  | O=C(NC(c1ccccc1)C1CC1)c1ccc2[nH]nc(-c3ccc(N4CCOCC4)cc3)c2c1 (stereo not shown) [Example A12, N-(cyclopropyl(phenyl)methyl)-3-(4-morpholinophenyl)-1H-indazole-5-carboxamide]
≤ 5 µM | ≤ 5 µM | ≤ 5 µM | ≤ 5 µM | ≤ 5 µM | ≤ 5 µM | ≤ 5 µM | ≤ 5 µM | ≤ 5 µM | ≤ 5 µM |  | CCc1cccc(CC)c1NC(=O)Nc1ccc2[nH]nc(-c3ccc(OC4CCN(C)CC4)cc3)c2c1 [Example A46]
